≈ marks a conversion by molar mass, not a printed value.
How the values were obtained:
Assay type in all cases: functional
[1] = tested on: Mycobacterium tuberculosis; assay: Antimycobacterial activity against multidrug-resistant Mycobacterium tuberculosis isolate Z-1-4 by agar proportion method
[2] = tested on: Mycobacterium tuberculosis; assay: Antimycobacterial activity against isoniazid, streptomycin-resistant Mycobacterium tuberculosis isolate A-4-25 by agar proportion method
[3] = tested on: Mycobacterium tuberculosis; assay: Antimycobacterial activity against multidrug-resistant Mycobacterium tuberculosis isolate M-1-32 by agar proportion method
[4] = tested on: Mycobacterium tuberculosis; assay: Antimycobacterial activity against multidrug-resistant Mycobacterium tuberculosis isolate N-4-11 by agar proportion method
[5] = tested on: Mycobacterium tuberculosis; assay: Antimycobacterial activity against streptomycin-resistant Mycobacterium tuberculosis isolate A-3-47 by agar proportion method
[6] = tested on: Mycobacterium tuberculosis; assay: Antimycobacterial activity against multidrug-resistant Mycobacterium tuberculosis isolate K-3-6 by agar proportion method
[7] = tested on: Mycobacterium tuberculosis; assay: Antimycobacterial activity against multidrug-resistant Mycobacterium tuberculosis isolate U-2-15 by agar proportion method
[8] = tested on: Mycobacterium tuberculosis; assay: Antimycobacterial activity against multidrug-resistant Mycobacterium tuberculosis isolate P-1-50 by agar proportion method
[9] = tested on: Mycobacterium tuberculosis; assay: Antimycobacterial activity against isoniazid-resistant Mycobacterium tuberculosis isolate A-2-1 by agar proportion method
[10] = tested on: Mycobacterium tuberculosis; assay: Antimycobacterial activity against rifampicin-resistant Mycobacterium tuberculosis isolate A-2-4 by agar proportion method
[11] = tested on: Mycobacterium tuberculosis; assay: Antimycobacterial activity against multidrug-resistant Mycobacterium tuberculosis isolate U-4-6 by agar proportion method
[12] = tested on: Mycobacterium tuberculosis; assay: Antimycobacterial activity against isoniazid, rifampicin-resistant Mycobacterium tuberculosis isolate A-2-3 by agar proportion method
[13] = tested on: Mycobacterium tuberculosis; assay: Antimycobacterial activity against multidrug-resistant Mycobacterium tuberculosis isolate P-4-11 by agar proportion method
[14] = tested on: Mycobacterium tuberculosis; assay: Antimycobacterial activity against streptomycin-resistant Mycobacterium tuberculosis isolate A-4-8 by agar proportion method
[15] = tested on: Mycobacterium tuberculosis; assay: Antimycobacterial activity against multidrug-resistant Mycobacterium tuberculosis isolate A-2-6 by agar proportion method
[16] = tested on: Mycobacterium tuberculosis; assay: Antimycobacterial activity against multidrug-resistant Mycobacterium tuberculosis isolate N-5-2 by agar proportion method
[17] = tested on: Mycobacterium tuberculosis; assay: Antimycobacterial activity against multidrug-resistant Mycobacterium tuberculosis isolate Q-4-1 by agar proportion method
[18] = tested on: Mycobacterium tuberculosis; assay: Antimycobacterial activity against isoniazid, rifampicin-resistant Mycobacterium tuberculosis isolate J-1-19 by agar proportion method
[19] = tested on: Mycobacterium tuberculosis; assay: Antimycobacterial activity against multidrug-resistant Mycobacterium tuberculosis isolate R-1-38 by agar proportion method

## CC(=O)N[C@@H]1[C@@H](O)[C@H](O)[C@@H](CO)O[C@H]1SC(=S)N(C)C
[1]
  MIC: 6.25 µg/mL (≈ 19.3 µM)
[2]
  MIC: 6.25 µg/mL (≈ 19.3 µM)
[3]
  MIC: 6.25 µg/mL (≈ 19.3 µM)
[4]
  MIC: 6.25 µg/mL (≈ 19.3 µM)
[5]
  MIC: 6.25 µg/mL (≈ 19.3 µM)
[6]
  MIC: 6.25 µg/mL (≈ 19.3 µM)
[7]
  MIC: 3.12 µg/mL (≈ 9.62 µM)
[8]
  MIC: 6.25 µg/mL (≈ 19.3 µM)
[9]
  MIC: 6.25 µg/mL (≈ 19.3 µM)
[10]
  MIC: 6.25 µg/mL (≈ 19.3 µM)
[11]
  MIC: 6.25 µg/mL (≈ 19.3 µM)
[12]
  MIC: 3.12 µg/mL (≈ 9.62 µM)
[13]
  MIC: 6.25 µg/mL (≈ 19.3 µM)
[14]
  MIC: 6.25 µg/mL (≈ 19.3 µM)
[15]
  MIC: 6.25 µg/mL (≈ 19.3 µM)
[16]
  MIC: 1.56 µg/mL (≈ 4.81 µM)
[17]
  MIC: 6.25 µg/mL (≈ 19.3 µM)
[18]
  MIC: 6.25 µg/mL (≈ 19.3 µM)
[19]
  MIC: 6.25 µg/mL (≈ 19.3 µM)

— ChEMBL document CHEMBL1156113, “Synthesis of new sugar derivatives and evaluation of their antibacterial activities against Mycobacterium tuberculosis” (Bioorg Med Chem Lett, 2009)
